The test system of this assay is S. aureus (ATCC 29213). Kind of assay: MICs of compound having Formula IV and ciprofloxacin alone and in combination. Particulars: against S. aureus; alone. The assay is classed as cell-based. As for the experimental part: Compositions having various combinations of concentrations of compound having Formula IV and cirprofloxacin were tested systematically against S. aureus, P. aeruginosa, and E. coli.

As for `O=C(O)c1cn(C2CC2)c2cc(N3CCNCC3)c(F)cc2c1=O` [Ciprofloxacin, ciprofloxacin], the effectiveness in words entry was “effective”.

For the origin of these results see patent US8173640B1, “Compositions and methods for treating, reducing, ameliorating, or preventing infections” (Bausch & Lomb Incorporated, priority 2007, dated 2012).
